# Assay results from patent publication US11491132B2, “Methods for treating thrombocytopenia” (Enzychem Lifesciences Corporation, priority 2014, dated 2022).
# Assays:
# C3 = C3 inhibition by PLAG in HMC-1, ELISA; type: cell-based, human; conditions: HMC-1 cells, PLAG 1, 10 and 100 μg/mL for 2 hours, activated 72 hours
# Procedure: In a separate experiment, human mast cells (HMC-1, 1×10^5 cell/ml) are treated with PLAG of various concentrations (1, 10 and 100 μg/mL) for 2 hours. The cells are activated for 72 hours with 10% FBS (Fetal bovine serum) containing IMDM. The decrease of C3 is confirmed by ELISA analysis of the expressed protein.
# STAT6 [1] = target: T1, STAT6 (Homo sapiens, UniProt P42226); experiment: Dephosphorylation of STAT6 in PLAG treated cells, western blot; type: cell-based; set-up: endogenous in cells; host or cells: U937, A549, Jurkat; conditions: U937, Jurkat and A549 cells; PLAG 0.01 to 10 μg/ml; 15 min after 10 ng/ml IL-4
# T1 sequence (P42226 1-847): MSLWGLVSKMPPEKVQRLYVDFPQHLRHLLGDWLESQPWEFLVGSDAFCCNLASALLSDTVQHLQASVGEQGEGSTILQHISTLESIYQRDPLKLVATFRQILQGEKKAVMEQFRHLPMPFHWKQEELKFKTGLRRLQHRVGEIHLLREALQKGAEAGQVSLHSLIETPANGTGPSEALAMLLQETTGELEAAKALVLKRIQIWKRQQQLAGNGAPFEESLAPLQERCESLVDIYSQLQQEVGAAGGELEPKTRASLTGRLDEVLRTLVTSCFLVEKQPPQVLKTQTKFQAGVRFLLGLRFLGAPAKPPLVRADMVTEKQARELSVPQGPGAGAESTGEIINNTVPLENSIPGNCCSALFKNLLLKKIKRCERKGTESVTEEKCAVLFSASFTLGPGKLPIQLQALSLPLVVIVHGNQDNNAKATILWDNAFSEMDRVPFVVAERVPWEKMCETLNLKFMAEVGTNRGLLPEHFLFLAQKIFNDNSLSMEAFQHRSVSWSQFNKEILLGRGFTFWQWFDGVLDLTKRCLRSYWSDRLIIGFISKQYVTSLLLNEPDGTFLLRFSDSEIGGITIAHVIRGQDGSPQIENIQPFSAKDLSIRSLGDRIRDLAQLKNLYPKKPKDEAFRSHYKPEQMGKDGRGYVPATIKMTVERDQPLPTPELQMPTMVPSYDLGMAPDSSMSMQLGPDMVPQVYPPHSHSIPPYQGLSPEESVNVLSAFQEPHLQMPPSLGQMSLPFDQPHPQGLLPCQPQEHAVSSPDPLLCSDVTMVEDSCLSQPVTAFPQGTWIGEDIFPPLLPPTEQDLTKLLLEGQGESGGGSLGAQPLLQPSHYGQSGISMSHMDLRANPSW
# Procedure: Dephosphorylation of STAT6 is examined using anti-phosphorylated STAT6 in U937, A549, and Jurkat cell lysates treated with PLAG concentration from 0.01 to 10 μg/ml. Phosphorylation of STAT6 is induced by treatment with 10 ng/ml of IL-4. Dephosphorylation of STAT1 is examined in the U937 cell lysate treated with PLAG (0.01 to 10 μg/ml). Phosphorylation of STAT1 is induced by 10 ng of IFN-γ treatment. Dephosphorylation of STAT1 and STAT6 is examined at 15 min after stimulation with IFN-γ and IL-4 respectively, in the PLAG pretreated cells. […] The transcriptional activity of STAT6 is decreased by the dephosphorylation of STAT6. […] No effect of PLAG on STAT1 phosphorylation is observed.
# STAT6 [2] = target: T1, STAT6; experiment: Reporter (luciferase) assay for STAT6 transcriptional activity in HepG2 cells; type: cell-based; set-up: endogenous in cells; host or cells: HepG2 (gene transfected); conditions: gene transfected HepG2, 10 ng IL-4, PLAG 0.01-10 μg/ml, 12 hours incubation
# Procedure: By using STAT6 inhibitor (S6I), it is confirmed that the reduction of Complement 3 in HepG2 cells (human hepatocyte cell line) is regulated by STAT6. […] It is also confirmed that PLAG has selective efficacy on STAT6 over STAT1. FIG. 1 presents graphs showing STAT1 and STAT6 transcriptional activity in the PLAG treated HepG2 cells. NC refers to the unstimulated control cell. For the STAT1 assay, gene transfected HepG2 (human hepatocyte cell line) is treated with 10 ng of IFN-γ and serially diluted PLAG is added (0.01 μg/ml, 0.1 μg/ml, 1 μg/ml, and 10 μg/ml as shown) to see its effect on gene expression in the stimulated cell. For the STAT6 assay, gene transfected HepG2 cells are treated with 10 ng of IL-4 and again serially diluted PLAG is added (0.01 μg/ml, 0.1 μg/ml, 1 μg/ml, and 10 μg/ml as shown) to see its effect on gene expression in the stimulated cell. The assay is carried out following 12 hours incubation of treated cells.
smiles,measurement,setting,value
"CCCCC/C=C\C/C=C\CCCCCCCC(=O)OC(COC(C)=O)COC(=O)CCCCCCCCCCCCCCC (racemic) [PLAG, 1-palmitoyl-2-linoleoyl-3-acetylglycerol]","decrease of C3 (expressed protein, ELISA)",C3,proportional to the concentration of PLAG
same,IL-4 treatment induced STAT6 phosphorylation,STAT6 [1],inhibited with increasing PLAG concentrations
same,"STAT6 expression (transcriptional activity, reporter)",STAT6 [2],"significant, dose-dependent effect"
